From US5654422A, “Acylated γ-cyclodextrins” (priority 1994, dated 1997)
Like-named read-outs stand apart in the source and are kept apart here.

Experiments:
[1] = zahn-wellens test, 336 h
Protocol: The biological degradability was determined by means of the Zahn-Wellens Test (OECD Guidelines for testing of Chemicals 302B, Adopted by the Council on 17th Jul. 1992).

[2] = cited from earlier work
[3] = cited from earlier work; remark: listed apart in the source
[4] = G. Antlsperger, 6th International Symposium on Cyclodextrins, 1992; cited from earlier work

hydroxypropyl-γ-cyclodextrin [Hp-gamma-CD(0.9)]
Degradation ZaWe-14d [1]: 25%

Acetyl-γ-CD (DS, 0.83) [Ex. 2 Ac-gamma-CD(0.83)]
Degradation ZaWe-14d [1]: 98%

OC[C@H]1O[C@@H]2O[C@H]3[C@H](O)[C@@H](O)[C@@H](O[C@H]4[C@H](O)[C@@H](O)[C@@H](O[C@H]5[C@H](O)[C@@H](O)[C@@H](O[C@H]6[C@H](O)[C@@H](O)[C@@H](O[C@H]7[C@H](O)[C@@H](O)[C@@H](O[C@H]8[C@H](O)[C@@H](O)[C@@H](O[C@H]9[C@H](O)[C@@H](O)[C@@H](O[C@H]1[C@H](O)[C@H]2O)O[C@@H]9CO)O[C@@H]8CO)O[C@@H]7CO)O[C@@H]6CO)O[C@@H]5CO)O[C@@H]4CO)O[C@@H]3CO [γ-CD, γ-cyclodextrin]
precipitation of complexes at higher concentrations ([2]; U.S. Pat. No. 4,764,604): frequently precipitate out at higher concentrations | solubilizing capacity / properties ([2]; prior art statement): comparatively low | solubility in water ([3]; native γ-cyclodextrin): 18.7 % by weight | solubility in water ([3]; prior art statement): comparatively poorly soluble in water | toxicological properties [4]: favorable toxicological properties

Methyl-γ-cyclodextrin (DS,1.8) [Me-gamma-CD(1.8)]
Degradation ZaWe-14d [1]: 14%
